Legend:
Experiment in all cases: relative viability (nuclei count vs DMSO), 5 days (fraction); higher = more cells survive
[1] = system: A549
How it was run: (§1)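 Lung cancer cell lines in 1536-well plates got either a single drug or a fixed anchor-drug dose together with five library-drug doses (not always all listed) in √10 steps, by pin tool, on the day after seeding. Nuclei were counted after 5 days, and relative viability is the treated-to-vehicle ratio of nuclei counts. Values are medians of duplicate plates.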

[2] = system: COR-L 105
How it was run: as §1

[3] = system: Calu-6
How it was run: as §1

[4] = system: EBC-1
How it was run: as §1

[5] = system: IA-LM
How it was run: as §1

[6] = system: LCLC-103H
How it was run: as §1

[7] = system: LK-2
How it was run: as §1

[8] = system: NCI-H1299
How it was run: as §1

[9] = system: NCI-H1355
How it was run: as §1

[10] = system: NCI-H1703
How it was run: as §1

[11] = system: NCI-H520
How it was run: as §1

Work on O=c1cc(N2CCOCC2)oc2c(-c3cccc4c3sc3ccccc34)cccc12 + Cc1nc(NC(=O)N2CCC[C@H]2C(N)=O)sc1-c1ccnc(C(C)(C)C(F)(F)F)c1 [Alpelisib] (partner 2 µM) yielded a relative viability ([1]; first compound 0.01 µM) of 0.866, a relative viability ([1]; first compound 0.03162 µM) of 0.775 and a relative viability ([1]; first compound 0.1 µM) of 0.814. It also gave a relative viability ([1]; first compound 0.3162 µM) of 0.811, a relative viability ([1]; first compound 1 µM) of 0.845 and a relative viability ([2]; first compound 0.01 µM) of 1.1. The relative viability ([2]; first compound 0.03162 µM) was 0.933, the relative viability ([2]; first compound 0.1 µM) was 0.834 and the relative viability ([2]; first compound 0.3162 µM) was 1.06. For the same molecule, the relative viability ([2]; first compound 1 µM) was 0.838, the relative viability ([3]; first compound 0.01 µM) was 0.98 and the relative viability ([3]; first compound 0.03162 µM) was 1.05. For the same molecule, the relative viability ([3]; first compound 0.1 µM) was 1.01, the relative viability ([3]; first compound 0.3162 µM) was 1.04 and the relative viability ([3]; first compound 1 µM) was 0.974. It also gave a relative viability ([4]; first compound 0.01 µM) of 0.977, a relative viability ([4]; first compound 0.03162 µM) of 0.77 and a relative viability ([4]; first compound 0.1 µM) of 0.837. The relative viability ([4]; first compound 0.3162 µM) was 0.966, the relative viability ([4]; first compound 1 µM) was 0.827 and the relative viability ([5]; first compound 0.01 µM) was 0.837. For the same molecule, the relative viability ([5]; first compound 0.03162 µM) was 0.769, the relative viability ([5]; first compound 0.1 µM) was 0.828 and the relative viability ([5]; first compound 0.3162 µM) was 0.736. It also gave a relative viability ([5]; first compound 1 µM) of 0.735, a relative viability ([6]; first compound 0.01 µM) of 0.904 and a relative viability ([6]; first compound 0.03162 µM) of 0.924. It also gave a relative viability ([6]; first compound 0.1 µM) of 1.03, a relative viability ([6]; first compound 0.3162 µM) of 1.03 and a relative viability ([6]; first compound 1 µM) of 0.93. It also gave a relative viability ([7]; first compound 0.01 µM) of 1.1, a relative viability ([7]; first compound 0.03162 µM) of 1.01 and a relative viability ([7]; first compound 0.1 µM) of 1.14. The relative viability ([7]; first compound 0.3162 µM) was 1.03, the relative viability ([7]; first compound 1 µM) was 1.25 and the relative viability ([8]; first compound 0.01 µM) was 1.05. For the same molecule, the relative viability ([8]; first compound 0.03162 µM) was 1.07, the relative viability ([8]; first compound 0.1 µM) was 1.11 and the relative viability ([8]; first compound 0.3162 µM) was 1.09. For the same molecule, the relative viability ([8]; first compound 1 µM) was 1.09, the relative viability ([9]; first compound 0.01 µM) was 0.871 and the relative viability ([9]; first compound 0.03162 µM) was 0.855. It also gave a relative viability ([9]; first compound 0.3162 µM) of 0.903, a relative viability ([9]; first compound 1 µM) of 0.82 and a relative viability ([10]; first compound 0.01 µM) of 0.538. The relative viability ([10]; first compound 0.03162 µM) was 0.33, the relative viability ([10]; first compound 0.1 µM) was 0.331 and the relative viability ([10]; first compound 0.3162 µM) was 0.317. For the same molecule, the relative viability ([10]; first compound 1 µM) was 0.317, the relative viability ([11]; first compound 0.01 µM) was 0.997 and the relative viability ([11]; first compound 0.03162 µM) was 1.09. It also gave a relative viability ([11]; first compound 0.1 µM) of 0.915, a relative viability ([11]; first compound 0.3162 µM) of 0.841 and a relative viability ([11]; first compound 1 µM) of 0.996.

Molecule O=c1cc(N2CCOCC2)oc2c(-c3cccc4c3sc3ccccc34)cccc12 + CS(=O)(=O)N1CCN(Cc2cc3nc(-c4cccc5[nH]ncc45)nc(N4CCOCC4)c3s2)CC1 [Pictilisib] (partner 1 µM) has a relative viability ([1]; first compound 0.01 µM) of 0.582, a relative viability ([1]; first compound 0.03162 µM) of 0.526 and a relative viability ([1]; first compound 0.1 µM) of 0.601. The relative viability ([1]; first compound 0.3162 µM) was 0.516, the relative viability ([1]; first compound 1 µM) was 0.599 and the relative viability ([2]; first compound 0.01 µM) was 0.347. It also gave a relative viability ([2]; first compound 0.03162 µM) of 0.394, a relative viability ([2]; first compound 0.1 µM) of 0.49 and a relative viability ([2]; first compound 0.3162 µM) of 0.422. It also gave a relative viability ([2]; first compound 1 µM) of 0.439, a relative viability ([3]; first compound 0.01 µM) of 0.879 and a relative viability ([3]; first compound 0.03162 µM) of 0.917. It also gave a relative viability ([3]; first compound 0.1 µM) of 1.06, a relative viability ([3]; first compound 0.3162 µM) of 0.9 and a relative viability ([3]; first compound 1 µM) of 1.04. The relative viability ([4]; first compound 0.01 µM) was 0.409, the relative viability ([4]; first compound 0.03162 µM) was 0.35 and the relative viability ([4]; first compound 0.1 µM) was 0.338. For the same molecule, the relative viability ([4]; first compound 0.3162 µM) was 0.378, the relative viability ([4]; first compound 1 µM) was 0.371 and the relative viability ([5]; first compound 0.01 µM) was 0.304. The relative viability ([5]; first compound 0.03162 µM) was 0.34, the relative viability ([5]; first compound 0.1 µM) was 0.271 and the relative viability ([5]; first compound 0.3162 µM) was 0.357. For the same molecule, the relative viability ([5]; first compound 1 µM) was 0.337, the relative viability ([6]; first compound 0.01 µM) was 0.64 and the relative viability ([6]; first compound 0.03162 µM) was 0.664. It also gave a relative viability ([6]; first compound 0.1 µM) of 0.649, a relative viability ([6]; first compound 0.3162 µM) of 0.627 and a relative viability ([6]; first compound 1 µM) of 0.577. For the same molecule, the relative viability ([7]; first compound 0.01 µM) was 0.676, the relative viability ([7]; first compound 0.03162 µM) was 0.562 and the relative viability ([7]; first compound 0.1 µM) was 0.615. It also gave a relative viability ([7]; first compound 0.3162 µM) of 0.578, a relative viability ([7]; first compound 1 µM) of 0.64 and a relative viability ([8]; first compound 0.01 µM) of 0.922. For the same molecule, the relative viability ([8]; first compound 0.03162 µM) was 0.688, the relative viability ([8]; first compound 0.1 µM) was 0.897 and the relative viability ([8]; first compound 0.3162 µM) was 0.816. The relative viability ([8]; first compound 1 µM) was 0.801, the relative viability ([9]; first compound 0.01 µM) was 0.486 and the relative viability ([9]; first compound 0.03162 µM) was 0.502. For the same molecule, the relative viability ([9]; first compound 0.3162 µM) was 0.429, the relative viability ([9]; first compound 1 µM) was 0.419 and the relative viability ([10]; first compound 0.01 µM) was 0.245. For the same molecule, the relative viability ([10]; first compound 0.03162 µM) was 0.221, the relative viability ([10]; first compound 0.1 µM) was 0.223 and the relative viability ([10]; first compound 0.3162 µM) was 0.253. For the same molecule, the relative viability ([10]; first compound 1 µM) was 0.252, the relative viability ([11]; first compound 0.01 µM) was 0.304 and the relative viability ([11]; first compound 0.03162 µM) was 0.321. The relative viability ([11]; first compound 0.1 µM) was 0.282, the relative viability ([11]; first compound 0.3162 µM) was 0.305 and the relative viability ([11]; first compound 1 µM) was 0.312.

Source: the supplement of paper PMC10307832
